# Patent publication US20250134892A1, “COMBINATION OF COMPOUNDS FOR TREATING VASCULAR DISEASES COMPRISING PDE5 INHIBITOR, ARGININE AND N-ACETYLCYSTEINE” (Future Pharmtech Inc., priority 2022, published 2025)
# Read-outs that look alike come from different tables or passages of the source.
# Key:
# [1] = test system: Human umbilical vein endothelial cells (HUVEC); assay: Nitric oxide release amount from endothelial cells (NO assay kit); format: cell-based; settings: vascular endothelial cells; for release amount of nitric oxide compared with control group (drug treatment for 0 min): 100 nM sildenafil
# Experimental: Sildenafil, arginine, N-acetylcysteine, and S-nitroso-N-acetylpenicillamine (SNAP) are dissolved and diluted in phosphate buffered saline (PBS). […] The solutions are stored at a temperature of 4° C. […] Human umbilical vein endothelial cells (HUVEC) obtained from Bioresource Collection and Research Center (Hsinchu, Taiwan) were cultured in Ham's F-12K (Sigma-Aldrich) with endothelial cell growth supplement (Millipore), heparin (Sigma-Aldrich), 2.2 mg/mL sodium bicarbonate, and 10% FBS (Gibco). HUVEC at passage 5 to 15 were used in all applications. Human pulmonary artery vascular smooth muscle (PAVSM) cells and growth media were obtained from Lonza Inc. (Walkersville, MD., USA). Cells were grown in a 5% CO2 atmosphere at 37° C. For cell treatments, HUVEC and PAVSM cells were grown in confluence respectively on the upper and lower wells of Transwell® units. Culture medium volume in each upper chamber was 1.5 mL, and in each lower chamber was 2.5 mL. […] All supernatants of HUVEC and PAVSM were collected right after the treatments for the NO amount analysis. HUVEC cells and PAVSM cells were rinsed in ice-cold phosphate buffered saline and then solubilized in ice-cold 6% trichloroacetic acid for the protein extraction. Samples were stored at −80° until the assays. Analysis of Nitric Oxide Release Amount from Endothelial Cells The nitric oxide amount was assessed using the NO assay kit (Promega). After treatment, the supernatants of HUVEC were collected for the NO assay reagent kit, and 200 μL per well was applied according to the manufacturer's instructions. Relative Luminance Unit (RLU) emitted by the product was measured using a microreader.
# [2] = test system: Endothelial nitric oxide synthase (eNOS); assay: Expression amount of endothelial nitric oxide synthase (eNOS assay kit); format: cell-based, Human; settings: vascular endothelial cells, treatment 10 min (FIG. 3)
# Experimental: Sildenafil, arginine, N-acetylcysteine, and S-nitroso-N-acetylpenicillamine (SNAP) are dissolved and diluted in phosphate buffered saline (PBS). […] The solutions are stored at a temperature of 4° C. […] Human umbilical vein endothelial cells (HUVEC) obtained from Bioresource Collection and Research Center (Hsinchu, Taiwan) were cultured in Ham's F-12K (Sigma-Aldrich) with endothelial cell growth supplement (Millipore), heparin (Sigma-Aldrich), 2.2 mg/mL sodium bicarbonate, and 10% FBS (Gibco). HUVEC at passage 5 to 15 were used in all applications. Human pulmonary artery vascular smooth muscle (PAVSM) cells and growth media were obtained from Lonza Inc. (Walkersville, MD., USA). Cells were grown in a 5% CO2 atmosphere at 37° C. For cell treatments, HUVEC and PAVSM cells were grown in confluence respectively on the upper and lower wells of Transwell® units. Culture medium volume in each upper chamber was 1.5 mL, and in each lower chamber was 2.5 mL. […] All supernatants of HUVEC and PAVSM were collected right after the treatments for the NO amount analysis. […] Analysis of Expression Amount of Endothelial Nitric Oxide Synthase Endothelial nitric oxide synthase (eNOS) activity was assessed using the eNOS assay kit (Promega). […] Relative Luminance Unit (RLU) emitted by the product was measured using a microreader.
# [3] = test system: Human pulmonary artery vascular smooth muscle (PAVSM) cells; assay: cGMP in smooth muscle cells (cGMP immunoassay); format: cell-based; settings: for amount of cGMP compared with control group (drug treatment for 0 min): 100 nM sildenafil
# Experimental: Sildenafil, arginine, N-acetylcysteine, and S-nitroso-N-acetylpenicillamine (SNAP) are dissolved and diluted in phosphate buffered saline (PBS). […] The solutions are stored at a temperature of 4° C. […] Human umbilical vein endothelial cells (HUVEC) obtained from Bioresource Collection and Research Center (Hsinchu, Taiwan) were cultured in Ham's F-12K (Sigma-Aldrich) with endothelial cell growth supplement (Millipore), heparin (Sigma-Aldrich), 2.2 mg/mL sodium bicarbonate, and 10% FBS (Gibco). HUVEC at passage 5 to 15 were used in all applications. Human pulmonary artery vascular smooth muscle (PAVSM) cells and growth media were obtained from Lonza Inc. (Walkersville, MD., USA). Cells were grown in a 5% CO2 atmosphere at 37° C. For cell treatments, HUVEC and PAVSM cells were grown in confluence respectively on the upper and lower wells of Transwell® units. Culture medium volume in each upper chamber was 1.5 mL, and in each lower chamber was 2.5 mL. […] All supernatants of HUVEC and PAVSM were collected right after the treatments for the NO amount analysis. HUVEC cells and PAVSM cells were rinsed in ice-cold phosphate buffered saline and then solubilized in ice-cold 6% trichloroacetic acid for the protein extraction. Samples were stored at −80° until the assays. Analysis of cGMP in Smooth Muscle Cells […] Nitric Oxide-Cyclic GMP Signaling Pathway as an Illustrative Example and Derivation of the General Case; PLOS COMPUTATIONAL BIOLOGY, DOI:10.1371/journal.pcbi.1004822 Mar. 17, 2016). cGMP formation was measured by immunoassay according to the cGMP Assay (Cayman Chemical Co., Ann Arbor, MI).
# HUVEC [4] = assay: Quantitative free radical ROS content (Cm-H2DCFDA); format: cell-based, Human; settings: vascular endothelial cells, treatment 10 min (FIG. 6)
# Experimental: (§1) Sildenafil, arginine, N-acetylcysteine, and S-nitroso-N-acetylpenicillamine (SNAP) are dissolved and diluted in phosphate buffered saline (PBS). […] The solutions are stored at a temperature of 4° C.
# (§2) Human umbilical vein endothelial cells (HUVEC) obtained from Bioresource Collection and Research Center (Hsinchu, Taiwan) were cultured in Ham's F-12K (Sigma-Aldrich) with endothelial cell growth supplement (Millipore), heparin (Sigma-Aldrich), 2.2 mg/mL sodium bicarbonate, and 10% FBS (Gibco). HUVEC at passage 5 to 15 were used in all applications. Human pulmonary artery vascular smooth muscle (PAVSM) cells and growth media were obtained from Lonza Inc. (Walkersville, MD., USA). Cells were grown in a 5% CO2 atmosphere at 37° C.
# For cell treatments, HUVEC and PAVSM cells were grown in confluence respectively on the upper and lower wells of Transwell® units. […]
# Detection Mode of Quantitative Free Radical ROS Content
# ROS detection studies were performed using a Cm-H2DCFDA ROS detection kit (Invitrogen, Grand Island, NY, USA). […] ROS generation was measured every 10 min up to 2 h with a micro-reader at 490 nm excitation, 530 nm emission. […] Samples were then measured immediately using a Promega microreader. ROS levels generated by 2.5×10^4 viable treated cells were expressed as the percentage of ROS produced by an equal number of viable negative control cells.
# HUVEC [5] = assay: Vascular fibrosis index: lipid peroxidation (malondialdehyde, MDA); format: cell-based, Human; settings: vascular endothelial cells, treatment 10 min (FIG. 7)
# Experimental: as §1, §2
# For cell treatments, HUVEC and PAVSM cells were grown in confluence respectively on the upper and lower wells of Transwell® units. Culture medium volume in each upper chamber was 1.5 mL, and in each lower chamber was 2.5 mL. […]
# Lipid peroxidation in HUVEC protein extracts was quantified measuring the concentration of MDA by a spectrofluorometric assay using an “MDA assay kit” as described by Richard et al., 1992 (Richard et al. 1992). Quantification was achieved by parallel measurements of a standard curve of known MDA concentrations, and results were expressed as level change of the control.
# HUVEC [6] = assay: Vascular permeability analysis: VEGF-A release content; format: cell-based, Human; settings: vascular endothelial cells, treatment 10 min (FIG. 8)
# Experimental: as §1, §2
# For cell treatments, HUVEC and PAVSM cells were grown in confluence respectively on the upper and lower wells of Transwell® units. Culture medium volume in each upper chamber was 1.5 mL, and in each lower chamber was 2.5 mL. Confluent HUVEC cells were treated with regular medium in the presence or absence of S, SS, SN, SSN and SAN for 0, 10, 20, 30 and 60 min. All supernatants of HUVEC and PAVSM were collected right after the treatments for the NO amount analysis. […]
# VEGFA amount was assessed using the VEGFA assay kit (Promega). […] Relative Absorbance Unit at 540 nm emitted by the product was measured using a microreader.
# [7] = sildenafil alone, healthy elderly subjects (65 years or older); cited from earlier work
# erectile dysfunction = settings: sildenafil alone, placebo 25%, cited from earlier work
smiles,measurement,setting,value
"CCCc1nn(C)c2c(=O)[nH]c(-c3cc(S(=O)(=O)N4CCN(C)CC4)ccc3OCC)nc12 [SILD, sildenafil]",release amount of nitric oxide compared with control group (drug treatment for 0 min),[1]; treatment 10 min (FIG. 1),about 1.6 folds
same,release amount of nitric oxide compared with control group (drug treatment for 0 min),[1]; treatment 20 min (FIG. 1),about 2.6 folds
same,release amount of nitric oxide compared with control group (drug treatment for 0 min),[1]; treatment 30 min (FIG. 1),about 3.1 folds
same,release amount of nitric oxide compared with control group (drug treatment for 0 min),[1]; treatment 60 min (FIG. 1),about 3.5 folds
same,release amount of nitric oxide compared with control group (with no drug),[1]; 10-min drug treatment (FIG. 2),about 1.6 folds
same,expression amount of nitric oxide synthase compared with control group (with no drug),[2],about 2 folds
same,amount of cGMP compared with control group (drug treatment for 0 min),[3]; treatment 10 min (FIG. 4),about 2.6 folds
same,amount of cGMP compared with control group (drug treatment for 0 min),[3]; treatment 20 min (FIG. 4),~3 folds
same,amount of cGMP compared with control group (drug treatment for 0 min),[3]; treatment 30 min (FIG. 4),~4.7 folds
same,amount of cGMP compared with control group (drug treatment for 0 min),[3]; treatment 60 min (FIG. 4),~5.5 folds
same,amount of cGMP compared with control group (with no drug),[3]; 10-min treatment (FIG. 5),about 2.6 folds
same,amount of ROS compared with control group (with no drug treatment),HUVEC [4],about 2.8 folds
same,amount of MDA compared with control group (with no drug treatment),HUVEC [5],about 2.8 folds
same,amount of VEGFA compared with control group (with no drug treatment),HUVEC [6],about 3.9 folds
same,clearance rate in elderly subjects,[7],decreased
same,proportion of disease improvement,erectile dysfunction; 25 mg,62%
same,proportion of disease improvement,erectile dysfunction; 50 mg,74%
same,proportion of disease improvement,erectile dysfunction; 100 mg,82%
